Test results from paper PMC2922380, “Binding of Protein Kinase Inhibitors to Synapsin I Inferred from Pair-Wise Binding Site Similarity Measurements” (PLoS ONE, 2010).
Where two headings read alike, the source gives them in different places.

Legend:
bovine synapsin I = bovine synapsin I (Bos taurus, UniProt P17599); assay: ATP-γ35S binding competition assay on purified synapsin I; conditions: for maximal inhibition of ATP-γ35S binding to synapsin I: from curve fitting (lower plateau); for binding to synapsin I (result in words): ATP-γ35S competition, inhibitor 0.1–30 µM
Method: Synapsin I was purified from bovine brain [71] and stored in liquid nitrogen in 200 mM NaCl, 25 mM TrisCl, pH 7.4. […] ATP-γ^35S binding was quantified as previously described. Briefly, aliquots of the samples were spotted onto squares of phosphocellulose paper (Upstate/Millipore, Billerica, MA). The paper squares were extensively washed with deionized water for 30 min, air-dried and analyzed for radioactivity by using the Perkin Elmer Cyclone Plus Phosphor Imager. After subtraction of the background values (samples with no synapsin I), data from individual competition curves were fitted with a sigmoidal dose-response function (f = min +(max–min)/(1+10∧((logEC50-x)*Hillslope)) using the Sigmaplot 8.0 software (SPSS Inc., Chicago, IL) to yield IC50 and maximal inhibition values. Data in the plots are the means ± sem of at least 5 independent experiments.

synapsin I / F-actin = assay: F-actin bundling activity of synapsin I, low speed sedimentation assay; assay type: biochemical, bovine; conditions: staurosporine 5 µM; synapsin I 0.5 µM, F-actin 5 µM; vs samples with F-actin and synapsin I only
Method: Actin was purified from acetone powder of rabbit skeletal muscles, [96] and stored in liquid nitrogen in 2 mM Tris pH 8, 0.2 mM ATP, 0,2 mM CaCl2, 0.125 mM β-mercaptoethanol and 0.005% NaN3 (G-buffer). Before the experiments, both G-actin and synapsin I were prespun for 1 h at 4°C at 300,000× g to remove large aggregates. G-actin was polymerized at room temperature for 1 h in the presence of 100 mM KCl, 1.2 mM MgCl2. […] Pellets were solubilized in sample buffer and analyzed by sodium dodecylsulfate polyacrylamide gel electrophoresis (SDS-PAGE) using 10% acrylamide in the resolving gel. Gels were fixed, stained with Coomassie Blue and destained. Densitometric analysis of the actin bands was carried out by using the ImageQuant system (GE Healthcare) followed by densitometric analysis of the fluorograms and by data interpolation into a standard curve of purified G-actin run in parallel with the unknown samples.

[1] = ATP-γ35S 0.2 µM, purified bovine synapsin I 0.5 µM
[2] = ATP-γ35S 0.2 µM, purified bovine synapsin I 0.5 µM, means ± sem from 5 independent experiments, read-out: IC50, inhibition of ATP-γ35S binding to synapsin I

Compound | maximal inhibition of ATP-γ35S binding to synapsin I (bovine synapsin I; [1]) | IC50 (bovine synapsin I; [2]) | binding to synapsin I (result in words) (bovine synapsin I) | further results
Nc1ncnc2c1ncn2[C@@H]1O[C@H](COP(=O)(O)OP(=O)(O)OP(=O)(O)O)[C@@H](O)[C@H]1O [ATP] | 95.8±2.2% | 70 ± 10 nM |  | 
CCc1cc(-c2n[nH]c(C)c2-c2ccc3c(c2)OCCO3)c(O)cc1O [CCT018159] |  |  | inactive | 
O=S(=O)(NCCNC/C=C/c1ccc(Br)cc1)c1cccc2cnccc12 [H-89] |  | > 30000 nM |  | 
Cc1nc2sccn2c(=O)c1CCN1CCC(=C(c2ccccc2)c2ccc(F)cc2)CC1 [R59022] |  |  | inactive | 
O=C(O)CN1C(=O)c2c(I)c(I)c(I)c(I)c2C1=O [compound 70159800251] | ca. 70% | 500 nM |  | 
O=c1c(O)c(-c2ccc(O)c(O)c2)oc2cc(O)c(O)c(O)c12 [quercetagetin] | 88.3±4.9% |  |  | IC50 (bovine synapsin I): 150 nM
CN[C@@H]1C[C@H]2O[C@@](C)([C@@H]1OC)n1c3ccccc3c3c4c(c5c6ccccc6n2c5c31)C(=O)NC4 [staurosporine] | 84.3±1.2% |  |  | increase in F-actin/synapsin I bundles recovered by low speed sedimentation (synapsin I / F-actin): approximately 30%; affinity to bovine synapsin I (bovine synapsin I; in vitro competition assay, as restated in Discussion): about 0.3 µM
novobiocin |  |  | inactive | 
